From US12291534B2, “Aminonorbornane derivative and manufacture method therefor and use thereof” (TRANSTHERA SCIENCES (NANJING), INC., priority 2018, dated 2025) come the findings set out here.

Each structure is given as a SMILES string.

A word on the IC50: it is the concentration at which inhibition is half-maximal. Low readings indicate higher potency, high ones lower potency.

In one data set the test system is OCI-LY10. The data set is described as follows: In vitro tumor cell proliferation inhibition (CellTiter-Glo), OCI-LY10. The class given is cell-based, human. On the procedure:
(§1) 2. Experiment on In Vitro Tumor Cell Proliferation Inhibition (1) Method • The tumor cell line (TMD-8/OCY-LY10) was suspended in RPMI1640+FBS10% and cultured in an incubator (37° C. 5% CO2). Cells were passaged periodically, and cells at logarithmic growth phase were collected for plating. • Cell staining was performed with trypan blue and viable cells were counted. • Cell concentration was adjusted to 7000 cells/well with medium. • 90 μL of cell suspension was added to a 96-well plate and cell-free culture medium was added to the blank control wells. • Cells in the 96-well plate were incubated overnight in an incubator (37° C., 5% CO2, 100% relative humidity). • Preparation of 400× compound storage plates: test compounds and reference drug were each dissolved in DMSO and 3× diluted from the highest concentration (400 μM) to the lowest concentration (0.61 μM). • Preparation of 10× compound working solutions: 78 μL of cell culture medium was added to a V-bottom 96-well plate, and 2 μL of the compound was pipetted from the 400× compound storage plate into the 96-well plate. Vehicle control wells and blank control wells were added with 2 μL of DMSO. […] Inhibition rates of compounds at different concentrations were calculated in Excel, followed by plotting the inhibition curves and calculating IC50 values with GraphPad Prism. […]

For another data set, the system named is OCI-LY10 xenograft tumor. Kind of data set: OCI-LY10 xenograft tumor model in CB17/SCID mice. The format is in vivo. The following applies: for anti-tumor activity (in words): OCI-LY10 xenograft tumor model. The protocol:
(§2) CB17/SCID female mice with serious immune deficiency were purchased from Beijing Vital River Laboratory Animal Technology Co., Ltd. and bred in SPF animal houses. Human OCI-LY10 cells (Shanghai Junrui-UFBN0102) were cultured in an RPMI 1640 culture medium containing 10% fetal bovine serum, 100 U/mL penicillin and 100 μg/mL streptomycin through monolayer culture in vitro in an incubator (37° C. 5% CO2). Routine treatment was performed twice a week for passaging. At a cell saturation of 80%-90% and a required number, the cells were harvested and counted, 0.2 mL (1×10^7) of OCI-LY10 cells (together with matrigel at a volume ratio of 1:1) were subcutaneously inoculated into the right back of each mouse, and the tumor size could be measured about one week after inoculation. Tumor size was measured using a vernier caliper and tumor volume was calculated using the following formula: tumor volume=(length×width^2)/2.

Another data set relates to TMD-8. The data set is described as follows: In vitro tumor cell proliferation inhibition (CellTiter-Glo), TMD-8. The class given is cell-based, human. On the procedure:
as §1

The test system of another data set is TMD-8 xenograft tumor. The data set is described as follows: TMD-8 xenograft tumor model in CB17/SCID mice. The class given is in vivo. The following applies: for anti-tumor activity (in words): TMD-8 xenograft tumor model. The protocol: as §2, with “TMD-8” for “OCI-LY10”, “Junrui-UFBN1682)” for “Junrui-UFBN0102)”, “C.,” for “C.”, “volume […].” for “volume=(length×width^2)/2.”

For a further data set, the target named is BTK (C481S) (Homo sapiens (Human), UniProt Q06187, C481S). The data set is described as follows: pBTK inhibition in HEK293 cells transfected with BTK(C481S) (ELISA). To be noted: 2 h incubation. The format is cell-based. The protocol:
For positive (high signal) controls, cells were treated with 0.5% DMSO alone.
(An ELISA detects its analyte on a solid surface through an enzyme-linked reagent.)

Chain of BTK (C481S) (Q06187 whole entry C481S): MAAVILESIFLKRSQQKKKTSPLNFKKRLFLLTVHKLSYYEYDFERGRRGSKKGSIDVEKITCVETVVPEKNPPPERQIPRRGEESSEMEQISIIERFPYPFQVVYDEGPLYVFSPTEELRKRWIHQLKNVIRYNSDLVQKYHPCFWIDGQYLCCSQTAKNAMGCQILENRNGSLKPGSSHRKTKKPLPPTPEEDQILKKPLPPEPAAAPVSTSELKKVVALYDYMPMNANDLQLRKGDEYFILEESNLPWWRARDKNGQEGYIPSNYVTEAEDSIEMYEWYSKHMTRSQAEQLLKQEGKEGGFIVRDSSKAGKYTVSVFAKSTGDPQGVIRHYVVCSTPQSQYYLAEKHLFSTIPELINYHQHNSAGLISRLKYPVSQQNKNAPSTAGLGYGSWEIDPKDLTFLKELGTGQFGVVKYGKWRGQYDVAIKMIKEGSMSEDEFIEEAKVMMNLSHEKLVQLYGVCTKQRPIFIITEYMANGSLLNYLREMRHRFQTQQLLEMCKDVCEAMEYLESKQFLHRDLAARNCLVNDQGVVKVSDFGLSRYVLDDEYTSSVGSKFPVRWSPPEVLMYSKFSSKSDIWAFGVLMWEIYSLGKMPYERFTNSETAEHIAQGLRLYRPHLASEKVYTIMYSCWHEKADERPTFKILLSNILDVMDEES

Regarding `C=CC(=O)N1CCC[C@@H](n2nc(-c3ccc(Oc4ccccc4)cc3)c3c(N)ncnc32)C1` [Ibrutinib, reference compound], the “inhibition of tumor cell proliferation (in words)” value in the data set with OCI-LY10 and in the data set on TMD-8 was “strong inhibition activity” in each case. Further, the “anti-tumor activity (in words)” value in the data set with OCI-LY10 xenograft tumor and in the data set on TMD-8 xenograft tumor was “extremely strong anti-tumor activity” in each case.

As to `Nc1nccn2c(C34CCC(NC(=O)CN5CCOCC5)(CC3)C4)nc(-c3ccc(C(=O)Nc4cc(C(F)(F)F)ccn4)cc3)c12` [Compound A-10-10, 4-(8-amino-3-(4-(2-morpholinoacetamido)bicyclo[2.2.1]heptan-1-yl)imidazo[1,5-a]pyrazin-1-yl)-N-(4-(trifluoromethyl)pyridin-2-yl)benzamide], the “inhibition of tumor cell proliferation (in words)” value with OCI-LY10 and in the data set with TMD-8 was “strong inhibition activity” in each case. The “disappearance of xenograft tumors” value with OCI-LY10 xenograft tumor (25 mg/kg bid, after 28 days of administration) is “disappeared completely”; in the data set with OCI-LY10 xenograft tumor (50 mg/kg bid, after 21 days of administration), “completely disappeared”. The “anti-tumor activity (in words)” value in the data set with OCI-LY10 xenograft tumor and with TMD-8 xenograft tumor was “extremely strong anti-tumor activity” in each case. For the same compound, the “tolerance of tumor-bearing mice” value with OCI-LY10 xenograft tumor (all dosages (25, 50 mg/kg bid)) is listed as “good tolerance”; in the data set with TMD-8 xenograft tumor (all dosages (25, 50 mg/kg bid)), “good tolerance”. Moreover, the “body weight of tumor-bearing mice” value with OCI-LY10 xenograft tumor (all treatment groups) and in the data set on TMD-8 xenograft tumor (all treatment groups) was “no significant weight loss” throughout. For the same compound, at BTK (C481S), it took 63 nM to reach half-maximal inhibition (IC50). Further, the “fraction of xenograft tumors disappeared” value with TMD-8 xenograft tumor (50 mg/kg bid, after 27 days of administration) was “⅝”.
